pKi: −log10 of the molar value. “And” between values parts separate entries of the source, which are not always exact repeats. Equal values may be shown once.
How the values were obtained:
[1] = target: T1, Muscarinic acetylcholine receptor M2 (Rattus norvegicus, UniProt P10980)
T1 sequence (P10980 whole entry): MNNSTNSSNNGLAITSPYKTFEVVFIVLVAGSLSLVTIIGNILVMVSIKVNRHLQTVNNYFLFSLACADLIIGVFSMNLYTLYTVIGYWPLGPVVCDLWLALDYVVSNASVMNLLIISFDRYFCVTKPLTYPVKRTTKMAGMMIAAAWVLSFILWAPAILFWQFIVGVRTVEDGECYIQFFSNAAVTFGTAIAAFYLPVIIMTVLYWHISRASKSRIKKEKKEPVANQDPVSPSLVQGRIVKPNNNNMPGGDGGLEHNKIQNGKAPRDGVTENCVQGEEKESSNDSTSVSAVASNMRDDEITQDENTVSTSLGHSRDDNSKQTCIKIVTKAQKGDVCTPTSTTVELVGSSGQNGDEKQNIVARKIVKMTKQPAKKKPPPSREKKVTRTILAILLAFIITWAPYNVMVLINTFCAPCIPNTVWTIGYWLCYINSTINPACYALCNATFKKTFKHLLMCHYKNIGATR

[2] = target: Neuronal acetylcholine receptor subunit alpha-4 (Rattus norvegicus, UniProt P09483)
[3] = target: Neuronal acetylcholine receptor subunit alpha-3 (Rattus norvegicus, UniProt P04757)
[4] = target: Nicotinic acetylcholine receptor (Rattus leucopus, UniProt Q62594)
[5] = target: Neuronal acetylcholine receptor subunit alpha-7 (Rattus norvegicus, UniProt Q05941)
Neuronal acetylcholine receptor subunit alpha-7, sequence (Q05941 whole entry): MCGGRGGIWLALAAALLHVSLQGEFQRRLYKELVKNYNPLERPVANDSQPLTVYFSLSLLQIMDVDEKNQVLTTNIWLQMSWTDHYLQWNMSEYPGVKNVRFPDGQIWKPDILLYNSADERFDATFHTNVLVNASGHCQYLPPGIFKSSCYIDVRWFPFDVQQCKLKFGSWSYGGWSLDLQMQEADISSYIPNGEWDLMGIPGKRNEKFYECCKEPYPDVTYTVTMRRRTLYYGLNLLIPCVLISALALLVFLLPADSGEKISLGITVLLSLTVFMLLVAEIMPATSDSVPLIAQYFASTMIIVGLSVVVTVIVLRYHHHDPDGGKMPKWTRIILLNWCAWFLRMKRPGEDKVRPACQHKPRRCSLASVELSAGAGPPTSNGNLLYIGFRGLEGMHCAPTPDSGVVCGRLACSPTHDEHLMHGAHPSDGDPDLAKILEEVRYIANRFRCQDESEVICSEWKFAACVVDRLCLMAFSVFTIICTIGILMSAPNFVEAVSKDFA

Neuronal acetylcholine receptor subunit alpha-4, sequence (P09483 whole entry): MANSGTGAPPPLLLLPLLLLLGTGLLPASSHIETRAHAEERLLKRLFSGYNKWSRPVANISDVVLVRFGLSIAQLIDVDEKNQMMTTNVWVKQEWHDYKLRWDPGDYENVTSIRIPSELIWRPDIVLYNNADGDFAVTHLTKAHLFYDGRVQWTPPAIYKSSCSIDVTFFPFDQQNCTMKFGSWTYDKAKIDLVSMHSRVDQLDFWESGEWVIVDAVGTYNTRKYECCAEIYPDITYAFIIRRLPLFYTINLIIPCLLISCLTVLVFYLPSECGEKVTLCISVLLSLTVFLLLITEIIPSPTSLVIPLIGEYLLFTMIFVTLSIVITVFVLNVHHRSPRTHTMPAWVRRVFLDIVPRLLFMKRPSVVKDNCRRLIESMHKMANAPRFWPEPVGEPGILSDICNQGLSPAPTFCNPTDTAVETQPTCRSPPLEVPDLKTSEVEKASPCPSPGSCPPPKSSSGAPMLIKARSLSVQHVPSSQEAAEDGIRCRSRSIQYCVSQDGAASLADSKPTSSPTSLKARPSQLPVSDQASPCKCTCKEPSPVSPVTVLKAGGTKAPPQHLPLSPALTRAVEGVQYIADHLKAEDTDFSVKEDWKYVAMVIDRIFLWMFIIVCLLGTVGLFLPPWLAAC
Nicotinic acetylcholine receptor, sequence (Q62594 whole entry): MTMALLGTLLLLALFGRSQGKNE
Neuronal acetylcholine receptor subunit alpha-3, sequence (P04757 whole entry): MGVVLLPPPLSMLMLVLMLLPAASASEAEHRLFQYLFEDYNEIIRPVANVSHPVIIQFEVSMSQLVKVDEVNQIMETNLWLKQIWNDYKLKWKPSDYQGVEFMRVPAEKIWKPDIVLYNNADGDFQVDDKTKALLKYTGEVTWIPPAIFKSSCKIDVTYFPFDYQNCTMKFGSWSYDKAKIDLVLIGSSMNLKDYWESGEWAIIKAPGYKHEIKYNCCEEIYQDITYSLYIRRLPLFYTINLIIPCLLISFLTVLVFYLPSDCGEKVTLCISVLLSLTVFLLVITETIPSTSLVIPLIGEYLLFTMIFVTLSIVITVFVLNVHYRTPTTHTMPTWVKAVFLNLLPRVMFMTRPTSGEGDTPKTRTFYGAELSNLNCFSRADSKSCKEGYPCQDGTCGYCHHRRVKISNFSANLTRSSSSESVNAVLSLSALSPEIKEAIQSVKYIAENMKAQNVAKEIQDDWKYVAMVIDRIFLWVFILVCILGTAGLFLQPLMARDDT

SMILES: C[C@H](CCOC(=O)N(C)C)N(C)C [3-N,N-dimethylaminobutyl-N,N-dimethylcarbamate]
- pKi [1]: 5.44
- pKi [2]: 7.77 and 7.18
- pKi [3]: 6.43
- pKi [4]: 8.05
- pKi [5]: < 5.00

SMILES: O=c1cccc2n1CC1CNCC2C1 (stereo unspecified) [CAS_485-35-8]
- pKi [2]: 8.89 and 8.17
- pKi [3]: 6.89
- pKi [5]: < 5.00

SMILES: CN(C)C(=O)OCC[N+](C)(C)C [CAS_84607]
- pKi [1]: 5.92
- pKi [4]: 7.70

SMILES: CN(C)CCOC(=O)N(C)C [DMCAE]
- pKi [1]: < 5.00
- pKi [4]: 5.24

SMILES: COC(=O)Nc1ccc(Cl)c(Cl)c1 [SWEP]
- pKi [1]: 6.82
- pKi [3]: 5.57
- pKi [4]: 7.64
- pKi [5]: < 5.00

Source: BindingDB's records for doi:10.1124/mol.64.4.865 (The Danish University of Pharmaceutical Sciences, 2003)
